Results from US12297207B2, “Maytansinoid derivatives, conjugates thereof, and methods of use” (priority 2015, dated 2025).
Like-named read-outs stand apart in the source and are kept apart here.

What was measured:
C4-2 (PSMA+) cells = experiment: In vitro cytotoxicity assay (CCK8 viability), C4-2 cells; type: cell-based
Description: (§1) In this Example, the ability of various antibody-drug conjugates or their associated payloads to kill antigen-expressing tumor cells in vitro was assessed.
(§2) Ovcar3 (Muc16+) or C4-2 (PSMA+) cells were seeded in 96 well plates at 3000 (C42) cells per well in complete growth media and grown overnight. For cell viability curves, serially diluted conjugates or payloads were added to the cells at final concentrations ranging from 300 nM to 5 pM and incubated for 3 days. To measure viability, cells were incubated with CCK8 (Dojindo) for the final 1-3 hours and the absorbance at 450 nm (OD450) was determined on a Victor (Perkin Elmer). Background OD450 levels determined from digitonin ([…]) treated cells were subtracted from all wells and viability is expressed as a percentage of the untreated controls. IC50 values were determined from a four-parameter logistic equation over a 10-point response curve (GraphPad Prism). All conjugate curves and IC50 values are corrected for payload equivalents.

Ovcar3 (Muc16+) cells = experiment: In vitro cytotoxicity assay (CCK8 viability), Ovcar3 cells; type: cell-based
Description: as §1, §2

[1] = Table 2, payloads only, read-out: C4-2 IC50
[2] = Table 5, payloads only, read-out: C4-2 IC50
[3] = Table 2, payloads only, read-out: Ovcar3 IC50
[4] = Table 5, payloads only, read-out: Ovcar3 IC50

| SMILES | IC50 (C4-2 (PSMA+) cells; C4-2 cells, 3 days, conjugate values corrected for payload equivalents, read-out: IC50) [nM] | C4-2 % kill (C4-2 (PSMA+) cells; Table 2, payloads only) [%] | IC50 (C4-2 (PSMA+) cells; [1]) [nM] | C4-2 % kill (C4-2 (PSMA+) cells; Table 5, payloads only) [%] | IC50 (C4-2 (PSMA+) cells; [2]) [nM] | IC50 (Ovcar3 (Muc16+) cells; Ovcar-3 cells, 3 days, conjugate values corrected for payload equivalents, read-out: IC50) [nM] | Ovcar3 % kill (Ovcar3 (Muc16+) cells; Table 2, payloads only) [%] | IC50 (Ovcar3 (Muc16+) cells; [3]) [nM] | Ovcar3 % kill (Ovcar3 (Muc16+) cells; Table 5, payloads only) [%] | IC50 (Ovcar3 (Muc16+) cells; [4]) [nM] |
| --- | --- | --- | --- | --- | --- | --- | --- | --- | --- | --- |
| COc1cc(N)ccc1C(=O)N(C)[C@@H](C)C(=O)O[C@H]1CC(=O)N(C)c2cc(cc(OC)c2Cl)C/C(C)=C/C=C/[C@@H](OC)[C@@]2(O)C[C@H](OC(=O)N2)[C@@H](C)[C@@H]2O[C@@]12C [Compound 33, Maytansin-N-methyl-L-alanine-(2-methoxy-4-amino)benzamide] | 0.55 | 86 | 0.45 | 86 | 0.45 | 0.11 | 93 | 0.2 | 93 | 0.2 |
| COc1cc2cc(c1Cl)N(C)C(=O)C[C@H](OC(=O)[C@H](C)N(C)C(=O)c1cc(F)c(N)cc1Cl)[C@]1(C)O[C@H]1[C@H](C)[C@@H]1C[C@@](O)(NC(=O)O1)[C@H](OC)/C=C/C=C(\C)C2 [Compound 37, Maytansin-N-methyl-L-alanine-N-(2-chloro-4-amino-5-fluoro)benzamide] |  | 86 | 0.01 | 86 | 0.01 |  | 94 | < 0.01 | 94 | < 0.01 |
| COc1cc2cc(c1Cl)N(C)C(=O)C[C@H](OC(=O)[C@H](C)N(C)C(=O)c1ccc(N)cc1C(F)(F)F)[C@]1(C)O[C@H]1[C@H](C)[C@@H]1C[C@@](O)(NC(=O)O1)[C@H](OC)/C=C/C=C(\C)C2 [Compound 31, Maytansin-N-methyl-L-alanine-(2-trifluoromethyl-4-amino)benzamide] |  | 82 | 0.1 | 82 | 0.1 |  | 93 | 0.04 | 93 | 0.04 |
| COc1cc2cc(c1Cl)N(C)C(=O)C[C@H](OC(=O)[C@H](C)N(C)C(=O)c1ccc(N)c(C(F)(F)F)c1)[C@]1(C)O[C@H]1[C@H](C)[C@@H]1C[C@@](O)(NC(=O)O1)[C@H](OC)/C=C/C=C(\C)C2 [Compound 35, Maytansin-N-methyl-L-alanine-N-(3-trifluoromethyl-4-amino)benzamide] |  | 84 | 0.004 | 84 | 0.004 |  | 93 | < 0.01 | 93 | < 0.01 |
